ChEMBL document CHEMBL4359897, “Discovery of novel functionalized 1,2,4-triazoles as PARP-1 inhibitors in breast cancer: Design, synthesis and antitumor activity evaluation” (Eur J Med Chem, 2019)
Activity calls are given as the source filed them. The rule behind the calls is not given here.

How the values were obtained:
MCF7 [1] = experiment: Cytotoxicity against human MCF7 cells assessed as increase in extra cellular LDH at 2.5 to 5 uM incubated for 30 hrs by spectrophotometric based LDH assay; assay type: functional, cell-based
[2] = target: Poly [ADP-ribose] polymerase 1 (Homo sapiens, UniProt P09874); experiment: Inhibition of recombinant human full length N-terminal GST- tagged PARP1 expressed in baculovirus infected sf9 cells using Colorimetric HRP as substrate incubated for 30 mins by UV/Vis spectrophotometer analysis
Poly [ADP-ribose] polymerase 1, sequence (P09874 whole entry): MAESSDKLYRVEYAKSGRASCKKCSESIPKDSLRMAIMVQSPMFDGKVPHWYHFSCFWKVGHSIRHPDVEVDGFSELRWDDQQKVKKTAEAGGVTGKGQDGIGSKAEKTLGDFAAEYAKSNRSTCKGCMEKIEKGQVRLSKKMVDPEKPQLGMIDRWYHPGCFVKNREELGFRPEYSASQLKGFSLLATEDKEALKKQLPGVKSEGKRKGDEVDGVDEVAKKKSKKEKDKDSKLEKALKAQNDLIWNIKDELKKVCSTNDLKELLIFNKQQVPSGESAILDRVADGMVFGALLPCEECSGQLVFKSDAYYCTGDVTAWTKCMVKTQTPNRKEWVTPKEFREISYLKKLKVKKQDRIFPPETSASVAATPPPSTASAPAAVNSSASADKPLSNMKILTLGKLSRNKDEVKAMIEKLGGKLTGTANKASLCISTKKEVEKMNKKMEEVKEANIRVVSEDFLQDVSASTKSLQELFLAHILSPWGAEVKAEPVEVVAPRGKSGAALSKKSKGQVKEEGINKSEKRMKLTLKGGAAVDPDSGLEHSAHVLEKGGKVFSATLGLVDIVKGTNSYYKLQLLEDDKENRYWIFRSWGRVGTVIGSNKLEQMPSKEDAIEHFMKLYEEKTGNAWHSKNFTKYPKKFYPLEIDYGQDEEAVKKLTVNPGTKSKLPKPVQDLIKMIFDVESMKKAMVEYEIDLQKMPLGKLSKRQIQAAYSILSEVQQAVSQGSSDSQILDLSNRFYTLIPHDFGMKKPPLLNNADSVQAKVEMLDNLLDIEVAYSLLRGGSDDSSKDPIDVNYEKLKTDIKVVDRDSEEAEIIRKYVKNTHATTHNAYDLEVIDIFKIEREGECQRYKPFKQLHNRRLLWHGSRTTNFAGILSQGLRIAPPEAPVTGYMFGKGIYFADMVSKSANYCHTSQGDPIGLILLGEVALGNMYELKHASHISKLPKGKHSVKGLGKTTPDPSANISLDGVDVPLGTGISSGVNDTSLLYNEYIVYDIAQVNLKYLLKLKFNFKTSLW

MCF7 [3] = experiment: Inhibition of cell migration in human MCF7 cells at 2.5 to 5 uM incubated for 30 hrs by scratch wound assay relative to control; assay type: functional
MCF7 [4] = experiment: Antiproliferative activity against human MCF7 cells assessed as increase in PARP1-89 protein expression at 5 uM incubated for 30 hrs by Western blot analysis; assay type: functional, cell-based
MCF7 [5] = experiment: Antiproliferative activity against human MCF7 cells incubated for 30 hrs by hematoxylin staining based BrdU incorporation assay; assay type: functional, cell-based
MCF7 [6] = experiment: Cytotoxicity against human MCF7 cells at 2.5 to 5 uM incubated for 30 hrs by MTT assay; assay type: functional, cell-based
MCF7 [7] = experiment: Inhibition of cell migration in human MCF7 cells incubated for 30 hrs by scratch wound assay; assay type: functional, cell-based

S=c1[nH]nc(CSc2nnc(-c3cc4ccccc4[nH]3)n2-c2ccccc2)n1-c1ccccc1
Activity (MCF7 [1]): Active | IC50 [2]: 8080 nM

CC(=O)OC[C@H]1O[C@@H](Sc2nnc(-c3cc4ccccc4[nH]3)n2-c2ccccc2)[C@H](OC(C)=O)[C@@H](OC(C)=O)[C@@H]1OC(C)=O
inhibition (MCF7 [3]): inactive | Activity (MCF7 [4]): inactive | Activity (MCF7 [1]): Active | Activity (MCF7 [5]): Dose-dependent effect | Activity (MCF7 [6]): Active | IC50 [2]: 2220 nM

C=CCSc1nnc(-c2cc3ccccc3n2CC=C)n1-c1ccccc1
inhibition (INH) (MCF7 [3]): 30 - 40% | Activity (MCF7 [4]): Active | Activity (MCF7 [1]): Active | Activity (MCF7 [5]): Dose-dependent effect | Activity (MCF7 [6]): Active | IC50 [2]: 350 nM | inhibition (MCF7 [7]): Dose-dependent effect

O=C(c1cc(Cc2n[nH]c(=O)c3ccccc23)ccc1F)N1CCN(C(=O)C2CC2)CC1
Activity (MCF7 [6]): Active

S=c1[nH]nc(-c2cc3ccccc3[nH]2)n1-c1ccccc1
inhibition (INH) (MCF7 [3]): 30 - 40% | Activity (MCF7 [4]): Active | Activity (MCF7 [1]): Active | Activity (MCF7 [5]): Dose-dependent effect | Activity (MCF7 [6]): Active | IC50 [2]: 2100 nM | inhibition (MCF7 [7]): Dose-dependent effect

C=CCSc1nnc(-c2cc3ccccc3[nH]2)n1-c1ccccc1
inhibition (INH) (MCF7 [3]): 30 - 40% | Activity (MCF7 [4]): Active | Activity (MCF7 [1]): Active | Activity (MCF7 [5]): Dose-dependent effect | Activity (MCF7 [6]): Active | IC50 [2]: 2400 nM | inhibition (MCF7 [7]): Dose-dependent effect

CC(O)CSc1nnc(-c2cc3ccccc3[nH]2)n1-c1ccccc1 (configuration not stated)
Activity (MCF7 [1]): Active | IC50 [2]: 330 nM
